Measured values reported in US8415469B2, “Compounds and methods for kinase modulation, and indications therefor” (Plexxikon Inc., priority 2005, dated 2013).

Tests used:
Assay type in all cases: biochemical
Flt1 = target: T1, Flt1 (Homo sapiens, UniProt P17948); assay: AlphaScreen kinase assay, Flt1; details: read-out: IC50, activity toward kinase Flt1
T1 construct: P1826.pETN6 BI-PTP FLT1 M799-D1165-X WT; His6 (N); made in house; host or cells: E. coli (PTP1B co-expressed)
T1 sequence (P17948 with tags, fused parts or gaps): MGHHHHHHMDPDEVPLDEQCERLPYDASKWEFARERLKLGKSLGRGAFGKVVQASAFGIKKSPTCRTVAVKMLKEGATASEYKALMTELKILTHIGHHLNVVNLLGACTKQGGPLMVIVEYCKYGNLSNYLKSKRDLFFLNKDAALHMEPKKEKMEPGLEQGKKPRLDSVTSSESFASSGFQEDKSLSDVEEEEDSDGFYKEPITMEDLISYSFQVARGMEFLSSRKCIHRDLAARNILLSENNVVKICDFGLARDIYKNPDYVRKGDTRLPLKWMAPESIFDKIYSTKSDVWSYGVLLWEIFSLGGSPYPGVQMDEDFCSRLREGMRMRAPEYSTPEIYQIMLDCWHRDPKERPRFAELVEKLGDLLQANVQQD

B-Raf V600E = target: T2, B-Raf V600E (Homo sapiens, UniProt P15056, V600E); assay: AlphaScreen kinase assay, B-Raf V600E; details: read-out: IC50, activity toward kinase B-Raf V600E
T2 construct: P4254. pFastBacBD-CDC37 BRAF D437-K722-X, V600E; His6 with pFastBac HT leader (TEV site) (N); made in house; host or cells: Sf9 (baculovirus; chaperone CDC37 co-expressed)

FGFR1 = target: T3, FGFR1 (Homo sapiens, UniProt P11362, C488A/C584S); assay: AlphaScreen kinase assay, FGFR1; details: read-out: IC50, activity toward kinase FGFR
T3 construct: P1351.pET N6 BI-PTP FGFR A458-E765-X C488A, C584S; made in house; host or cells: E. coli (PTP1B co-expressed)

Src = target: T4, Src (Homo sapiens, UniProt P12931); assay: AlphaScreen kinase assay, Src; details: read-out: IC50, activity toward kinase Src
T4 construct: P1144. pET-N6 BI-PTP SRC V86-L536-X; made in house

Fms = target: T5, Fms (Homo sapiens, UniProt P07333); assay: AlphaScreen kinase assay, Fms; details: read-out: IC50, activity toward kinase Fms
T5 construct: purchased Upstate Biotechnology

Ret = target: T6, Ret (Homo sapiens, UniProt P07949); assay: AlphaScreen kinase assay, Ret; details: read-out: IC50, activity toward kinase Ret
T6 construct: P1378.pET-SF BI-PTP RET H661-R1012 HIS; made in house
T6 sequence (P07949 with tags, fused parts or gaps): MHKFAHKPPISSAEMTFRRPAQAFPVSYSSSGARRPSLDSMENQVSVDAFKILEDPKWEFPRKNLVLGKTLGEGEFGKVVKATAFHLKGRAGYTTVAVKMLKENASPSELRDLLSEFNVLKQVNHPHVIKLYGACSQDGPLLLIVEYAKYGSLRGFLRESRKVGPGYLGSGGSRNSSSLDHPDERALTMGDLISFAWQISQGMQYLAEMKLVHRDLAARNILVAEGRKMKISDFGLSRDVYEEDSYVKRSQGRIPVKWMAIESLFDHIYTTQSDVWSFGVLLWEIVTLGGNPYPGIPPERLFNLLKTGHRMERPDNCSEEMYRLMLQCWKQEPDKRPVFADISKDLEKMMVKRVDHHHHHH

Kit = target: T7, Kit (Homo sapiens, UniProt P10721); assay: AlphaScreen kinase assay, Kit; details: read-out: IC50, activity toward kinase Kit
T7 construct: P1332.N6 BI PTP KIT M552-K948-X COD; His6 (N); made in house; host or cells: E. coli (PTP1B co-expressed)

Jnk1 = target: T8, Jnk1 (Homo sapiens, UniProt P45983); assay: AlphaScreen kinase assay, Jnk1; details: read-out: IC50, activity toward kinase Jnk1
T8 construct: purchased Upstate Biotechnology
Excerpt: (§1) AlphaScreen assay was used to screen additional kinases. The assay is similarly dependent on the phosphorylation of a peptide substrate. In this assay, an antibody that recognizes phosphorylated substrate is bound to an acceptor bead. The peptide substrate is attached to biotin, which binds to a donor head that contains streptavidin. Thus phosphorylated substrate is bound by antibody and streptavidin, bringing the donor and acceptor heads into close proximity when kinase is not inhibited. The donor produces singlet oxygen which results in emission from the acceptor when they are in close proximity. Conversely, when kinase is inhibited, the donor and acceptor beads are not associated and the emission from the acceptor is reduced.
(§2) AlphaScreen assays were done using compounds dissolved in DMSO to a concentration of 20 mM. The compounds were diluted accordingly to the desired final concentrations in each sample well, using 1:3 serial dilution for a total of 8 concentration points. Plates were prepared such that each kinase reaction is 20 μl in 1× kinase buffer, 5% DMSO and 10 μM ATP. After incubation of the kinase reaction for 1 hour at room temperature, 5 μl of donor beads in stop buffer (50 mM EDTA in 1× kinase buffer) was added, the sample was mixed and incubated for 20 minutes at room temperature before adding 5 μl of acceptor beads in stop buffer. The samples were incubated for 60 minutes at room temperature and the signal per well was read on AlphaQuest reader.

Jnk3 = target: T9, Jnk3 (Homo sapiens, UniProt P53779); assay: AlphaScreen kinase assay, Jnk3; details: read-out: IC50, activity toward kinase Jnk3
T9 construct: purchased Upstate Biotechnology

B-Raf = target: T10, B-Raf (Homo sapiens, UniProt P15056); assay: AlphaScreen kinase assay, B-Raf; details: read-out: IC50, activity toward kinase B-Raf
T10 construct: purchased Upstate Biotechnology

c-Raf-1 = target: T11, c-Raf-1 (Homo sapiens, UniProt P04049); assay: AlphaScreen kinase assay, c-Raf-1; details: read-out: IC50, activity toward kinase c-Raf-1
T11 construct: purchased Upstate Biotechnology
Excerpt: as §1, §2

Measured: IC50

T7 sequence (P10721 with tags, fused parts or gaps): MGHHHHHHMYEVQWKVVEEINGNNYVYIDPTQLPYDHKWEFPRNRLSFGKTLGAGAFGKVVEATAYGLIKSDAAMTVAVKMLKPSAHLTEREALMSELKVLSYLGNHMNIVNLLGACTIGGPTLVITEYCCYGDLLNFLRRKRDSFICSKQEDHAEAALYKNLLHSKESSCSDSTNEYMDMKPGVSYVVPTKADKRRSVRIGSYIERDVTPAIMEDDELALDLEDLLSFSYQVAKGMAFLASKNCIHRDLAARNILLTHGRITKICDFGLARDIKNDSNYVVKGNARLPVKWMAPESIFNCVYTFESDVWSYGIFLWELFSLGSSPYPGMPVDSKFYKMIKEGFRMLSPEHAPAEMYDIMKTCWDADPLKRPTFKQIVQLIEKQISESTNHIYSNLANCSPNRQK
T2 sequence (P15056 with tags, fused parts or gaps V600E): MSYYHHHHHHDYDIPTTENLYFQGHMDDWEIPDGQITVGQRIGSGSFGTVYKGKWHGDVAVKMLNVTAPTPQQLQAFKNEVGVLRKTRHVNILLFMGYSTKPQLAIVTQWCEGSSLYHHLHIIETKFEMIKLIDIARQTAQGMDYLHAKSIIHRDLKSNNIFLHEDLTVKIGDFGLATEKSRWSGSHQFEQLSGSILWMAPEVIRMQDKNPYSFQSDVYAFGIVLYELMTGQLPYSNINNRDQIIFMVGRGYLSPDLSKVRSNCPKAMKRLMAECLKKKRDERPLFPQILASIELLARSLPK
T9 sequence (P53779 whole entry): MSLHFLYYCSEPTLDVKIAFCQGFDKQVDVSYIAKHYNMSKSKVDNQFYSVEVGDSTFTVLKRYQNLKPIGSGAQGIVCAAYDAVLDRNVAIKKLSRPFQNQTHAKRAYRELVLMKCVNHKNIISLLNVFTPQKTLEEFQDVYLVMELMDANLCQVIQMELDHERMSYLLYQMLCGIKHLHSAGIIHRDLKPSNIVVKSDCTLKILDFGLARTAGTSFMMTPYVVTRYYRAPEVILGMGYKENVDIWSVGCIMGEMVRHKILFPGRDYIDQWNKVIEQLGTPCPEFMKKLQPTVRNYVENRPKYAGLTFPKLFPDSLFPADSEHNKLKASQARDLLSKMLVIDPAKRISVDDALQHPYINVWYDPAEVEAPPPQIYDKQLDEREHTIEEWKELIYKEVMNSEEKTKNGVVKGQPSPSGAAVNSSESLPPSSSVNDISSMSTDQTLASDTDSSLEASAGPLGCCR
T3 sequence (P11362 458-765 C488A/C584S): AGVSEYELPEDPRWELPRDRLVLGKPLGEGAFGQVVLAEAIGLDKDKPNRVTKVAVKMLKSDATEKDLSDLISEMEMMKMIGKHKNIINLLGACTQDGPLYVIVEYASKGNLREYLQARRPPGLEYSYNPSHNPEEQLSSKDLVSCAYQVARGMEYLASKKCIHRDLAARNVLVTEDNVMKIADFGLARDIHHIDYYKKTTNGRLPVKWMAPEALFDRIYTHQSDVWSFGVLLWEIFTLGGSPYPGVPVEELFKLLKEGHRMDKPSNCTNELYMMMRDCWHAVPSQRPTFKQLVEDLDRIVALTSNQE
T8 sequence (P45983 whole entry): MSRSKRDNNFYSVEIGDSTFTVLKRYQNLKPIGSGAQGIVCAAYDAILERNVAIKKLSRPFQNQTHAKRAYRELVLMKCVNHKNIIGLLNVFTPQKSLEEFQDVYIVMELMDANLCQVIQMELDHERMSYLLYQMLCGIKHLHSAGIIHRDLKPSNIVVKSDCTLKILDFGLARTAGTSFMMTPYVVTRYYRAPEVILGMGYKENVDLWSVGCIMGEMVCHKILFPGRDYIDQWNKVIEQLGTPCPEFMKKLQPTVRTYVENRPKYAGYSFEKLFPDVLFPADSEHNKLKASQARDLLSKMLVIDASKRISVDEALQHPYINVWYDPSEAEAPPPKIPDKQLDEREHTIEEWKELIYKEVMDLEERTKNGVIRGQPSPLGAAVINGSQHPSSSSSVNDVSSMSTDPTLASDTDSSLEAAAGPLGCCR
T4 sequence (P12931 with tags, fused parts or gaps): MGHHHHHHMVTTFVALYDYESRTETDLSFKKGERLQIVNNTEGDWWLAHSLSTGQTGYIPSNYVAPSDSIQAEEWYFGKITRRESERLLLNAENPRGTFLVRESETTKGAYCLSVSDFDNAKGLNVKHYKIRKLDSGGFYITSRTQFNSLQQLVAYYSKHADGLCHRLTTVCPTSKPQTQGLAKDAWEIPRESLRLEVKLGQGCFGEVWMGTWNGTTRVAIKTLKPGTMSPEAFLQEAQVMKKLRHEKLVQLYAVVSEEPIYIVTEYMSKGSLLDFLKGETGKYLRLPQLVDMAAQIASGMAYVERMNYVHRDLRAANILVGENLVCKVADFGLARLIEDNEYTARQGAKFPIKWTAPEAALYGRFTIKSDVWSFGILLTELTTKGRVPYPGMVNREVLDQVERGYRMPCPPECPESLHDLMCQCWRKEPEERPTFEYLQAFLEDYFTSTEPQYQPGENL
T10 sequence (P15056 whole entry): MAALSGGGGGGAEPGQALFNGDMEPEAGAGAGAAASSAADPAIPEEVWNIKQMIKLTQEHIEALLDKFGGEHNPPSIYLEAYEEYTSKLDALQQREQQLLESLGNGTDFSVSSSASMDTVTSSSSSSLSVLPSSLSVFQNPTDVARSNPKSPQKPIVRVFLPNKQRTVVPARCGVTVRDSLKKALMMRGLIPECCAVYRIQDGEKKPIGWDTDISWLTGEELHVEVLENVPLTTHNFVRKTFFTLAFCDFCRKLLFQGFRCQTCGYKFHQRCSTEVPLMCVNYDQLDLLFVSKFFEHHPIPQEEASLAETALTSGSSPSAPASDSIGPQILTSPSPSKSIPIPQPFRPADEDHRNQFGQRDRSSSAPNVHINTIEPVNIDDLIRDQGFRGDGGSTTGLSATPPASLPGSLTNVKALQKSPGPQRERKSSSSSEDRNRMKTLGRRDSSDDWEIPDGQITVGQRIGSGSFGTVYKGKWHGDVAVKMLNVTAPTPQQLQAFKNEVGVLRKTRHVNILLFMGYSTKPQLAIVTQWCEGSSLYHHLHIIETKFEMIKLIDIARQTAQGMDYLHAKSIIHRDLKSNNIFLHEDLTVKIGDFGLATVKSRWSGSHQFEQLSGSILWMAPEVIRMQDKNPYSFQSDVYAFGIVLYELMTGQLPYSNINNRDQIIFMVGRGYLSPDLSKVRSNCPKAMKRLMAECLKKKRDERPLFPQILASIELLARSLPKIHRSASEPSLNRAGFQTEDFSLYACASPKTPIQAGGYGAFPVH
T5 sequence (P07333 20-972): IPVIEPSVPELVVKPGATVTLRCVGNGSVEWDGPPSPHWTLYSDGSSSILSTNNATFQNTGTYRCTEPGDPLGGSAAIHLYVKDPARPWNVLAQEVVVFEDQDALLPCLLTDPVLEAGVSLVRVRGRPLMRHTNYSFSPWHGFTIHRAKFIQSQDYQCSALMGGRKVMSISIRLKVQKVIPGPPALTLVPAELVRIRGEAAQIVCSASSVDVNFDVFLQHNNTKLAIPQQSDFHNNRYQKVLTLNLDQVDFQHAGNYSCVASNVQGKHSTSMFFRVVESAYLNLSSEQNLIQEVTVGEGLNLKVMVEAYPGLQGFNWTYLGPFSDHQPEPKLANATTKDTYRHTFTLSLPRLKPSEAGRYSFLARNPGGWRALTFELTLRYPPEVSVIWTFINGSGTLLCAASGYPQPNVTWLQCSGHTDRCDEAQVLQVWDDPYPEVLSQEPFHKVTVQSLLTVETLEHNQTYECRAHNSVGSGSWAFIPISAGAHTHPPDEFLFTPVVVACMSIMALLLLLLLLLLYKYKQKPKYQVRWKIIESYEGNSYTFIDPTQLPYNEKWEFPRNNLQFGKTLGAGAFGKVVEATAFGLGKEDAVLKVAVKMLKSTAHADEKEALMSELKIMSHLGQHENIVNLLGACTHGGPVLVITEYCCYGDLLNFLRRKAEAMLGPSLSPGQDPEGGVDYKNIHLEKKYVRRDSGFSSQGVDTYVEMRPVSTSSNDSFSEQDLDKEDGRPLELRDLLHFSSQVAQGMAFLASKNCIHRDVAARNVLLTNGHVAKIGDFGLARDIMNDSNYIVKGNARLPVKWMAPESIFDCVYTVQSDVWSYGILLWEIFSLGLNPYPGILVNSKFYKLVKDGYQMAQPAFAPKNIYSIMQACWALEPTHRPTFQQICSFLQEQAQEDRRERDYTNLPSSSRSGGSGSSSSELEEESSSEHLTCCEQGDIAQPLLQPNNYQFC
T11 sequence (P04049 whole entry): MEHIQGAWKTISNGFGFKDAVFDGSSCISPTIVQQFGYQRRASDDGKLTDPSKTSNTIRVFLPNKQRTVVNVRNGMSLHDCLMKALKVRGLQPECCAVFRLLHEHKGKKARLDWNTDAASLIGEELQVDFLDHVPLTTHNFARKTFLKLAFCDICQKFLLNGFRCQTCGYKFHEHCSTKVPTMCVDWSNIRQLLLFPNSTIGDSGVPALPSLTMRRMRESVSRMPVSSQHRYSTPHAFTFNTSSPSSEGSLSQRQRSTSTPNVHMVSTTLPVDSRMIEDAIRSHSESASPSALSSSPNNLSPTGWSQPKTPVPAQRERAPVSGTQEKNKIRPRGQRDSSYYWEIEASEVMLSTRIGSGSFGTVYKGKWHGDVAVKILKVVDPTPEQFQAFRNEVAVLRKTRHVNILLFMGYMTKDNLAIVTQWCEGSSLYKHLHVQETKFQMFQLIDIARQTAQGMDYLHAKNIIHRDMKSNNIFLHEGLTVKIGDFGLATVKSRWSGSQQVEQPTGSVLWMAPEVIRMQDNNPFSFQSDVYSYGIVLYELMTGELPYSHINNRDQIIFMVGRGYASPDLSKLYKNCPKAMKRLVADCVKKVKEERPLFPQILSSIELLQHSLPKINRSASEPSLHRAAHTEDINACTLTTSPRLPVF

COc1ccnc2[nH]cc(Cc3ccc(NCc4ccc(Cl)cc4)nc3)c12 [Compound P-0373]
≤ 10 µM: Flt1 | B-Raf V600E | FGFR1 | Src | Fms

Clc1ccc(CNc2ccc(Cc3c[nH]c4nccc(Cl)c34)cn2)cc1 [Compound P-0515]
≤ 10 µM: Flt1 | B-Raf V600E | FGFR1 | Src | Fms

COc1ccc(C(=O)c2c[nH]c3ncc(Br)cc23)c(Cl)c1 [Compound P-0647]
≤ 10 µM: B-Raf V600E | FGFR1 | Src | Ret | Kit

CCCS(=O)(=O)Nc1ccc(F)c(Cc2c[nH]c3ncc(NCCN4CCN(C)CC4)cc23)c1F [Compound P-1345]
≤ 10 µM: B-Raf V600E | FGFR1 | Src

O=[N+]([O-])c1cccc(C(O)c2c[nH]c3ncc(-c4cccnc4)cc23)c1 (stereo not drawn) [Compound P-1399, (3-nitro-phenyl)-(5-pyridin-3-yl-1H-pyrrolo[2,3-b]pyridin-3-yl)-methanol]
≤ 10 µM: B-Raf V600E | FGFR1 | Src | Fms | Kit

O=C(O)COc1ccc(F)c(Cc2c[nH]c3ncc(-c4cccnc4)cc23)c1F [Compound P-1468, [2,4-difluoro-3-(5-pyridin-3-yl-1H-pyrrolo[2,3-b]pyridin-3-ylmethyl)-phenoxy]-acetic acid]
≤ 10 µM: Flt1 | Jnk1 | Jnk3 | FGFR1 | Fms | Kit

O=C(c1c(Cl)cccc1Cl)c1c[nH]c2ncccc12 [Compound P-1476]
≤ 10 µM: FGFR1 | Src | Fms | Kit

Cc1cccc(C)c1C(=O)c1c[nH]c2ncccc12 [Compound P-1484]
≤ 10 µM: Src | Kit

c1ccc(Oc2cccc(Nc3c[nH]c4ncccc34)c2)cc1 [Compound P-1496, (3-Phenoxy-phenyl)-(1H-pyrrolo[2,3-b]pyridin-3-yl)-amine]
≤ 10 µM: Src | Fms

COc1cccc(N(C)c2c[nH]c3ncccc23)c1 [Compound P-1506, (3-Methoxy-phenyl)-methyl-(1H-pyrrolo[2,3-b]pyridin-3-yl)-amine]
≤ 10 µM: B-Raf V600E | Src | Fms | Kit

CCCCNC(=O)Nc1ccc(F)c(C(=O)c2c[nH]c3ncc(-c4cccnc4)cc23)c1 [Compound P-1534, 1-Butyl-3-[4-fluoro-3-(5-pyridin-3-yl-1H-pyrrolo[2,3-b]pyridine-3-carbonyl)-phenyl]-urea]
not listed: Src | Ret | c-Raf-1
≤ 10 µM: all other assays above

CCCS(=O)(=O)Nc1ccc(F)c(C(=O)c2c[nH]c3ncc(-c4ccc(C(N)=O)cc4)cc23)c1F [Compound P-1546, 4-{3-[2,6-Difluoro-3-(propane-1-sulfonylamino)-benzoyl]-1H-pyrrolo[2,3-b]pyridin-5-yl}-benzamide]
not listed: Src | Ret
≤ 10 µM: all other assays above

Nc1ccc(F)c(C(=O)c2c[nH]c3ncc(-c4ccccc4)cc23)c1 [Compound P-1577]
≤ 10 µM: Flt1 | Jnk1 | B-Raf V600E | B-Raf | Jnk3 | FGFR1

O=C(O)/C=C/c1cccc(-c2cnc3[nH]cc(C(=O)c4ccc(Cl)cc4Cl)c3c2)c1 [Compound P-1585]
≤ 10 µM: Flt1 | Jnk1 | B-Raf V600E | B-Raf | Jnk3 | FGFR1

NC(=O)c1cccc(-c2cnc3[nH]cc(C(=O)c4cccc(N)c4)c3c2)c1 [Compound P-1592]
≤ 10 µM: Flt1 | Jnk1 | B-Raf V600E | B-Raf | Jnk3 | FGFR1

CCCS(=O)(=O)Nc1cccc(C(=O)c2c[nH]c3ncc(-c4ccccc4)cc23)c1C [Compound P-1610]
not listed: Src | Ret | Kit | c-Raf-1
≤ 10 µM: all other assays above

O=C(c1c[nH]c2ncc(-c3ccc(Cl)cc3)cc12)c1cccc2c1ccn2C(=O)NCc1ccccc1 [Compound P-1618, 4-[5-(4-Chloro-phenyl)-1H-pyrrolo[2,3-b]pyridine-3-carbonyl]-indole-1-carboxylic acid benzylamide]
≤ 10 µM: Flt1 | Jnk1 | Jnk3 | Fms

O=C(Nc1cccc(C(=O)c2c[nH]c3ncccc23)c1)Nc1ccc(F)c(F)c1 [Compound P-1706, 1-(3,4-Difluoro-phenyl)-3-[3-(1H-pyrrolo[2,3-b]pyridine-3-carbonyl)-phenyl]-urea]
≤ 10 µM: Jnk1 | B-Raf V600E | B-Raf | Jnk3 | Fms | Kit

COc1cccc(NC(=O)Nc2cccc(C(=O)c3c[nH]c4ncccc34)c2)c1 [Compound P-1707, 1-(3-Methoxy-phenyl)-3-[3-(1H-pyrrolo[2,3-b]pyridine-3-carbonyl)-phenyl]-urea]
≤ 10 µM: Jnk1 | B-Raf V600E | B-Raf | Jnk3 | Fms | Kit
